Laboratory results: patent publication US11473045B2, “Device for in-vitro modelling in-vivo tissues of organs” (priority 2013, dated 2022)

Tested on: Lung bronchial epithelial cells (16HBEo-)
Method: FIG. 14 illustrates the effects of a physiologic (10% linear), cyclic mechanical strain on the permeability of an epithelial barrier. Lung bronchial epithelial cells (16HBEo-) were seeded at a density of 250'000 cells/cm^2 onto the fibronectin-coated culturing membrane. The cells were allowed to adhere and to grow for 72 h. The cells were exposed to cyclic strain (10% linear, 0.2 Hz) for 19 h, whereas the control was kept at static conditions. […] After 2 h of incubation, the permeability of each molecule was measured with a fluorescence multiplate reader (Tecan Infinite M1000; Ex:460/Em:515 & Ex:553/Em:627).

FITC-sodium
transmembrane permeability of stretched cells compared to control cells in static conditions: significantly increased transmembrane permeability
